Reference: ChEMBL document CHEMBL1143068, “Isoform-selective inhibition of the human UDP-glucuronosyltransferase 2B7 by isolongifolol derivatives” (J Med Chem, 2007)

What was measured:
[1] = target: T1, UGT2B15 (Homo sapiens, UniProt P54855); assay: Inhibition of human recombinant UGT2B15 at 25 uM by fluorescence spectroscopy; set-up: scale not given: the % may be the effect or the level left; conditions: read-out: Activity
T1 sequence (P54855 whole entry): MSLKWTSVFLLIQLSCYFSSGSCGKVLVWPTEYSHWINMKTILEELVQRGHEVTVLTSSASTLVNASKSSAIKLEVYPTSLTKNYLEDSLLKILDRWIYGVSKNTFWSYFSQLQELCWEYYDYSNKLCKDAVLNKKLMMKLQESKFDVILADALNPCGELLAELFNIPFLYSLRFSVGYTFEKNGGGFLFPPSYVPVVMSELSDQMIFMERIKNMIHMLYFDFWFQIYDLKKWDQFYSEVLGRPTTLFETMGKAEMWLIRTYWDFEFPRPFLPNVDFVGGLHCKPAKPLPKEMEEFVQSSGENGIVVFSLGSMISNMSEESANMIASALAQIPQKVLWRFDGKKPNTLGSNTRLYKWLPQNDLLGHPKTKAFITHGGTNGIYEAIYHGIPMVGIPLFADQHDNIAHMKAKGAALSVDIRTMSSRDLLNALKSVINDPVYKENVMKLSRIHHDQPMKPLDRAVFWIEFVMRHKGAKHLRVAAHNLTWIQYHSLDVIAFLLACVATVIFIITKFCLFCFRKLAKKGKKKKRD

[2] = target: T2, UDP-glucuronosyltransferase 2B17 (Homo sapiens, UniProt O75795); assay: Inhibition of human recombinant UGT2B17 assessed as reduction of scopoletin glucuronidation
T2 sequence (O75795 whole entry): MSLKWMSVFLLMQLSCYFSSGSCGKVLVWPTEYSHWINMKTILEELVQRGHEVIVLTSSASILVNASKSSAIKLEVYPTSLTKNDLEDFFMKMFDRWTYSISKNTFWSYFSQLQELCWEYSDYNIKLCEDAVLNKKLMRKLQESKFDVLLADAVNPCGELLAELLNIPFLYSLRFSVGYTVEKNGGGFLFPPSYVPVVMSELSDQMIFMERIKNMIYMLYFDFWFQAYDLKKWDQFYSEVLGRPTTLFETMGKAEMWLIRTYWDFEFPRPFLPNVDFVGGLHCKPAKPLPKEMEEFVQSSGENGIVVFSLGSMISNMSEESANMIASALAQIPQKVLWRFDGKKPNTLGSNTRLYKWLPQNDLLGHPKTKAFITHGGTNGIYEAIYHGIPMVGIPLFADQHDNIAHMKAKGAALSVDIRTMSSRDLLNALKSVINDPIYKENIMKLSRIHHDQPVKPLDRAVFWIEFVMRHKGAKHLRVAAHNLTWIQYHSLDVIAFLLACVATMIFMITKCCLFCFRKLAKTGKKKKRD

[3] = target: T3, UGT2B4 (Homo sapiens, UniProt P06133); assay: Inhibition of human recombinant UGT2B4 at 25 uM by fluorescence spectroscopy; set-up: scale not given: the % may be the effect or the level left; conditions: read-out: Activity
T3 sequence (P06133 whole entry): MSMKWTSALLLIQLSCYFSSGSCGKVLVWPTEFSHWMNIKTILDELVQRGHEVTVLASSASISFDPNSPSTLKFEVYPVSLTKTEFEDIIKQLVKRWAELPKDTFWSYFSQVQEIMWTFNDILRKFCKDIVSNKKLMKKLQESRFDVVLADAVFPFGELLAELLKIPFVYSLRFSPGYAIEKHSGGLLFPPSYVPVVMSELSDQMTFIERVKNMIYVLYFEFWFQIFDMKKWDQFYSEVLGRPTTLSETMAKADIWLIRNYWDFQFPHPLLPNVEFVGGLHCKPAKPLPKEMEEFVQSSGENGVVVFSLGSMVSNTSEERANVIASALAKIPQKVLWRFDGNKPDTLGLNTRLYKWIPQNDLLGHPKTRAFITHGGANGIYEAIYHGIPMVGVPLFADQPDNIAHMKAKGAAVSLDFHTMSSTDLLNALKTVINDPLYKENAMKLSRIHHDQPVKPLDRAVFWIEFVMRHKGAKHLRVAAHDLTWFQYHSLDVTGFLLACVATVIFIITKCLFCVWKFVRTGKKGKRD

[4] = target: T4, UGT2B17 (Homo sapiens, UniProt O75795); assay: Inhibition of human recombinant UGT2B17 at 25 uM by fluorescence spectroscopy
T4 sequence (O75795 whole entry): T2 sequence (O75795 whole entry)

[5] = target: T5, UGT2B28 (Homo sapiens, UniProt Q9BY64); assay: Inhibition of human recombinant UGT2B28 at 25 uM by fluorescence spectroscopy; set-up: scale not given: the % may be the effect or the level left; conditions: read-out: Activity
T5 sequence (Q9BY64 whole entry): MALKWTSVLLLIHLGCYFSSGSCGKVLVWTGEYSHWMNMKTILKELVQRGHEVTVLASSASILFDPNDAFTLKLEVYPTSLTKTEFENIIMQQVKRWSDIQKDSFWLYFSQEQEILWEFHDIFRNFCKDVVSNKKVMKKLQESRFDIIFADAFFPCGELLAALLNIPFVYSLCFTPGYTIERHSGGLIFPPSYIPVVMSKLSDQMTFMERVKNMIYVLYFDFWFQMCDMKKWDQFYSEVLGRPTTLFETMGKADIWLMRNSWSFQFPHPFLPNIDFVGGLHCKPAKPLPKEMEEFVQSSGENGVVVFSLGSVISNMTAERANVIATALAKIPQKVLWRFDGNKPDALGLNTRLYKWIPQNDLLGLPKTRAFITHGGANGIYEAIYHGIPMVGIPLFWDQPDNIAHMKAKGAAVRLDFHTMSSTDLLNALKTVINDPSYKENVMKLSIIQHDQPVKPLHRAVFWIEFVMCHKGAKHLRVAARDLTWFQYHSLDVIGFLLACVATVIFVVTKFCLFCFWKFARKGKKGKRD

[6] = target: T6, UGT2B10 (Homo sapiens, UniProt P36537); assay: Inhibition of human recombinant UGT2B10 at 25 uM by fluorescence spectroscopy; set-up: scale not given: the % may be the effect or the level left; conditions: read-out: Activity
T6 sequence (P36537 whole entry): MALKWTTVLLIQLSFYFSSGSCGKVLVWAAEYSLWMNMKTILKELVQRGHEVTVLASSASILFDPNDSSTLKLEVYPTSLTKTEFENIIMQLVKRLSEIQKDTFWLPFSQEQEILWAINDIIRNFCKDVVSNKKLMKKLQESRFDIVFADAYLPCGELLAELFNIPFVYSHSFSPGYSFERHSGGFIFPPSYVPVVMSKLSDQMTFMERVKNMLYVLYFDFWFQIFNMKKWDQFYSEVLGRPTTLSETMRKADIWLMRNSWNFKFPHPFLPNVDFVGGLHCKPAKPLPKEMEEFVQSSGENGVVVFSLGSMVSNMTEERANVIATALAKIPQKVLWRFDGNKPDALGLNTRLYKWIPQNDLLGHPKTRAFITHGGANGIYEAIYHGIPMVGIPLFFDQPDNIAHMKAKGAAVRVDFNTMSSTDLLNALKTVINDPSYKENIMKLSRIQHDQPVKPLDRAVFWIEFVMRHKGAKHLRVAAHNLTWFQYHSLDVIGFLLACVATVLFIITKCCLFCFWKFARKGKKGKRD

## CC1(C)CCC[C@]2(C)[C@@H]([C@@H](O)c3ccccc3)[C@H]3CC[C@@H]2[C@H]31
[1]
  activity at 25 µM: 30%
[2]
  Ki: 21.8 µM
[3]
  activity at 25 µM: 30%
[4]
  inhibition at 25 µM: 70%
[5]
  activity at 25 µM: 30%
[6]
  activity at 25 µM: 30%
